Test results: US5578479A, “Alpha-amylase from hyperthermophilic archaebacterium” (The Johns Hopkins University, priority 1992, dated 1996)
Where a name gives a salt, the structure may show the parent alone.

Tests used:
[1] = target: T1, Pyrococcus furiosus α-amylase, purified, wild type, SEQ ID NO:1 (Pyrococcus furiosus, UniProt P49067); assay: activity stained native-PAGE after heating samples with additive; type: biochemical; conditions: sample heated 15 minutes
T1 construct: made in house; host or cells: Pyrococcus furiosus DSM 3638, native cells (not recombinant); cytosolic fraction, three ion exchange steps and electroelution
T1 sequence (P49067 2-649): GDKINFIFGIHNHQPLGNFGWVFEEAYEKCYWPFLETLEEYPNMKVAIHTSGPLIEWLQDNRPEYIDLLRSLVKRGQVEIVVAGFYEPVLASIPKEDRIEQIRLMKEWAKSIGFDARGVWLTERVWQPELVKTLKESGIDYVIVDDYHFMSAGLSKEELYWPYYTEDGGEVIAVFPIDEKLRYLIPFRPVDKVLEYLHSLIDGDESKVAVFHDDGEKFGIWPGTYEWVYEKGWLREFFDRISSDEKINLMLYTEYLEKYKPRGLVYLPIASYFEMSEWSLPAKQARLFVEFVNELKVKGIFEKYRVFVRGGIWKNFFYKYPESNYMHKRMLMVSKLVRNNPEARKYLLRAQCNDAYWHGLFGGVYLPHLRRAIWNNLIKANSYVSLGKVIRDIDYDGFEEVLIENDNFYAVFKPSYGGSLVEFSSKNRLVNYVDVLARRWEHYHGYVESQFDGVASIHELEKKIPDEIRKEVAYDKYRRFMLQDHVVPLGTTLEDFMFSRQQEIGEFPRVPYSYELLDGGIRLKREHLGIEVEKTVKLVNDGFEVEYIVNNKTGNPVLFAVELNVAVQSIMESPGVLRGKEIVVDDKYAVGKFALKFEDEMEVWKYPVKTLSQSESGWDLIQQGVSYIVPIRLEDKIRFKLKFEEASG
Description: Samples were heated 15 min in the following: Lane 1, 100 mM sodium phosphate pH 7.0; Lane 2, 5 mM EDTA; Lane 3, % SDS; Lane 4, 12% β-mercaptoethanol. The samples were run on a native gel (8% acrylamide), containing 0.02% starch, and stained as described in the Examples.
Activity staining was accomplished by the incorporation of starch into the acrylamide matrix of the resolving gel. When preparing the gels, as described above, 0.05% soluble starch was used in place of distilled water when the gels were cast. To observe the thermophilic amylase activity following electrophoresis the spacers and the gel left between the glass plates were sealed with Saran Wrap to prevent dessication. The gel, between the plates, was then incubated for 30 minutes at 98° C., then stained with iodine solution (see above). […] Following this procedure it was still possible to stain the gel with Coomassie blue to visualize the proteins within the gel.
To determine the effect of denaturants and metal ions on the activity of P. furiosus α-amylase activity, stained native-PAGE or in vitro activity assays were utilized.

[2] = target: T1, Pyrococcus furiosus α-amylase, purified, wild type, SEQ ID NO:1; assay: standard activity assay in the presence of denaturants; type: biochemical; conditions: reagent present at 1M, 98° C.
Description: The dextrinizing activity of the α-amylase was determined using a modification of the assay of Manning and Campbell (Manning et al, J. Biological Chem. 236(11):2952-2957 (1961)). To 20 μl of sample were added 20 μl of 1% soluble starch and 20 μl of 100 mM sodium phosphate, pH 7.0. Controls were prepared using an equal volume of the appropriate buffer in place of the enzyme solution. The samples were incubated at 92° C. for 10 minutes and the reaction terminated by cooling in ice water. Color was developed by the addition of 15 μl of an iodine solution (4% KI, 1.25% I). An additional 1 ml of distilled water was added to each sample to dilute the color of the sample to a measurable range. The absorbance was read at 600 nm with a Pharmacia LB Ultraspec III Spectrophotometer. One unit of α-amylase activity was defined as the amount of protein which hydrolyzed 1 mg of starch per minute.
The extent of activity loss induced by the denaturants, urea and guanidine HCl, was determined using a standard activity assay in which the above-mentioned reagents were present in 1M concentrations. At 98° C. the residual activity in the presence of these denaturants was 86.5% and 73% for urea and guanidine HCl, respectively.

Row | Structure (SMILES) | residual activity in the presence of denaturant [2] | further results
1 | O=C(O)CN(CCN(CC(=O)O)CC(=O)O)CC(=O)O [EDTA] |  | effect on activity (activity stained native-PAGE) ([1]; 5 mM EDTA): no significant effect on activity
2 | N=C(N)N [guanidine HCl] | 73% | 
3 | NC(N)=O [urea] | 86.5% | 
4 | OCCS [β-mercaptoethanol] |  | effect on activity (activity stained native-PAGE) ([1]; 2% β-mercaptoethanol): no significant effect on activity
